From PMC9037180, “Ligand-based design and synthesis of N'-Benzylidene-3,4-dimethoxybenzohydrazide derivatives as potential antimicrobial agents; evaluation by in vitro, in vivo, and in silico approaches with SAR studies” (Journal of Enzyme Inhibition and Medicinal Chemistry, 2022)
Converted amounts (≈) assume the structure as drawn.

How the values were obtained:
Assay type in all cases: cell-based
[1] = test system: Acientobacter (A. baumanii) ATCC 19606; assay: Agar well diffusion assay; conditions: result in words
Experimental: (§1) The agar well diffusion assay was first done to evaluate the antimicrobial activities of the different target compounds (4a–j) against gram-positive bacteria, gram-negative bacteria, and fungi (Table 1A). […] First, the antibacterial activities were tested against S. aureus ATCC 6538, Acientobacter (A. baumanii) ATCC 19606, S. typhi, E. coli, and P. aeruginosa as examples of the most common gram-positive and gram-negative bacteria, in comparison to vancomycin and ceftriaxone as two reference standards. In addition, the antifungal activities were screened against C. albicans, in comparison to amphotericin as a reference standard. […] The antibacterial activities of some tested compounds (4a, 4b, 4h, and 4e) against gram-positive and gram-negative bacteria by agar well diffusion assay are represented in the supplementary data (Figure SI1).
(§2) A modification of the agar well diffusion method[55] was done to detect the antimicrobial activities of different compounds (4a–j) against gram-positive bacteria, gram-negative bacteria, and fungi. The work was carried out at the Microbiology Department Faculty of Medicine for Girls Al-Azhar University. By visual comparison to 0.5 McFarland turbidity standards, a suspension of each bacterial strain was prepared. The zones of inhibition were measured in cm.

E. coli = assay: Agar well diffusion assay; conditions: result in words
Experimental: as §1, §2

S. typhi [2] = assay: Minimal bactericidal concentration (MBC); conditions: Salmonella enterica
[3] = Cytotoxicity on cells using MTT assay; conditions: African green monkey, Vero cells (normal mammalian cell line)
Experimental: The newly synthesised compounds were looked deeply into their efficacy using in silico, in vitro, and in vivo approaches. On the other hand, the cytotoxicity assay was performed for the tested compounds using a normal mammalian Vero cell line by the MTT assay[31]^,[32].
Moreover, the cytotoxicity values of the target compounds were determined to calculate their corresponding IC50 values through the MTT assay. The IC50 value indicates the compound’s concentration that is required to inhibit 50% of the target cells.
The MTT (3–(4,5-dimethylthiazol-2-yl)-2,5-diphenyltetrazolium bromide) tetrazolium reduction assay protocol was applied to determine the cytotoxicity of the target compounds (4a–j) on cells.

P. aeruginosa = assay: Agar well diffusion assay; conditions: result in words
Experimental: as §1, §2

S. aureus ATCC 6538 = assay: Agar well diffusion assay; conditions: result in words
Experimental: as §1, §2

S. typhi [4] = assay: Agar well diffusion assay; conditions: result in words
Experimental: as §1, §2

## COc1ccc(C(=O)NN=Cc2ccc3ccccc3n2)cc1OC [Compound 4i, N'-(quinolin-2-ylmethylene)-3,4-dimethoxybenzohydrazide]
[1]
  zones of inhibition (inhibitory activity): most inhibitory activity
E. coli
  zones of inhibition (inhibitory activity): superior inhibitory activity
S. typhi [2]
  MBC: 186 µM (≈ 62.5 µg/mL)
[3]
  IC50: 305 µM

## N'-((3a,7a-dihydro-1H-indol-3-yl)methylene)-3,4-dimethoxybenzohydrazide [Compound 4h]
P. aeruginosa
  zones of inhibition (inhibitory activity): best activities
S. aureus ATCC 6538
  zones of inhibition (inhibitory activity): best activities
S. typhi [4]
  zones of inhibition (inhibitory activity): best activities
